Data set [1] is described as follows: (§1) Rate of inactivation of sterol methyl transferase from Saccharomyces cerevisiae using mechanism based inhibitor.
For the next data set, the system named is Saccharomyces cerevisiae. Described as §1. The data set is classed as organism-based. The conditions noted are these: in vivo.

In data set [1], `CC(C)C(C)CC[C@@H](C)C1CCC2C3=C(CCC21C)C1(C)CCC(O)CC1CC3` (some centres not stated) displayed a Ki of 1100 nM. In the data set with Saccharomyces cerevisiae, this molecule came in with a Ki inact of 1.52 min⁻¹.

These data come from ChEMBL document CHEMBL1131730, “Isolation and characterization of an active-site peptide from a sterol methyl transferase with a mechanism-based inhibitor” (Bioorg Med Chem Lett, 1999).
